Assay type in all cases: biochemical
Common to all, as to conditions: kinase domain recombinant protein, 5 μM ATP

The target in one experiment is FGFR1 (Homo sapiens (Human), UniProt P11362). Briefly: FGFR1 kinase activity at the molecular level (ELISA, Poly(Glu,Tyr) 4:1 substrate). The method, then:
(§1) 100 μL/well of 2 mg/mL OPD developing solution (diluted with 0.1M citric acid-sodium citrate buffer containing 0.03% H2O2 (pH=5.4)), and reacted in dark for 1-10 minutes at 25° C.
Background: An ELISA detects its analyte on a solid surface through an enzyme-linked reagent.

For the next experiment, the target named is FGFR2 (Homo sapiens (Human), UniProt P21802). Briefly: FGFR2 kinase activity at the molecular level (ELISA, Poly(Glu,Tyr) 4:1 substrate). The method, then:
as §1

For a further experiment, the target named is FGFR3 (Homo sapiens (Human), UniProt P22607). Briefly: FGFR3 kinase activity at the molecular level (ELISA, Poly(Glu,Tyr) 4:1 substrate). On the procedure: as §1

Bounds are passed on as bounds.

Chain of FGFR1 (P11362 478-767): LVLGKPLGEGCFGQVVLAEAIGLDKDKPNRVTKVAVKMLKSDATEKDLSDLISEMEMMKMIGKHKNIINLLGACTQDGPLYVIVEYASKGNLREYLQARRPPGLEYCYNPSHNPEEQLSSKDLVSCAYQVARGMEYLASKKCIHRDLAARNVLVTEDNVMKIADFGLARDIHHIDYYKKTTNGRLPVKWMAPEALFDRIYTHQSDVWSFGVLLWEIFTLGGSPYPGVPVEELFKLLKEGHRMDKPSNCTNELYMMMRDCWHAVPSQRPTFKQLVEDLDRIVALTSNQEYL
Chain of FGFR2 (P21802 481-770): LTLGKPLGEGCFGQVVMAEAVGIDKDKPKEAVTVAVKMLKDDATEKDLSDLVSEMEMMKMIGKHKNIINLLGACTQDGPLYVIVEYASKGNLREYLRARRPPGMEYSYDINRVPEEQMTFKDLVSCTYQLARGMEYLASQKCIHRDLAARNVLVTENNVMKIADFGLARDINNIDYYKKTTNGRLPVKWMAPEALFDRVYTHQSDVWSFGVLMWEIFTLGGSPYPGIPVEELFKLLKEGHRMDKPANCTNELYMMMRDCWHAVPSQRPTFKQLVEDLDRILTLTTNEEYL
Chain of FGFR3 (P22607 472-761): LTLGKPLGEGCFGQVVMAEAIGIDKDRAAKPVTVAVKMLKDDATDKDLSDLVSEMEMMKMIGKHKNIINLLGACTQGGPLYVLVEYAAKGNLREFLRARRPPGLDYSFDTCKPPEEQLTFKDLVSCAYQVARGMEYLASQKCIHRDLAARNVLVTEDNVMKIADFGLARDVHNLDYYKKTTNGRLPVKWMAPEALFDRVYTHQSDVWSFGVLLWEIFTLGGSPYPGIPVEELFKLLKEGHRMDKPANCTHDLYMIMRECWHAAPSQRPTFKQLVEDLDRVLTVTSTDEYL

Take `COc1cc(OC)c(F)c(-c2ccc3c(NC(=O)c4ccc(N5C[C@@H](C)N[C@@H](C)C5)cc4)n[nH]c3c2)c1` [Example 55]: the IC50 on FGFR1 and at FGFR2 was < 100 nM each time.

As for `COc1cc(OC)c(Cl)c(-c2ccc3c(NC(=O)c4ccc(N5CCN(C)CC5)cc4)n[nH]c3n2)c1Cl` [Example 63, N-(6-(2,6-dichloro-3,5-dimethoxyphenyl)-1H-pyrazolo [3,4-b]pyridin-3-yl)-4-(4-methylpiperazine-1-yl)benzamide], the IC50 at FGFR1, on FGFR3 and on FGFR2 was < 100 nM throughout.

For `COc1cc(OC)c(Cl)c(-c2ccc3c(NC(=O)c4ccc(N5C[C@@H](C)N[C@@H](C)C5)cc4)n[nH]c3n2)c1Cl` [Example 64, N-(6-(2,6-dichloro-3,5-dimethoxyphenyl)-1H-pyrazolo [3,4-b]pyridin-3-yl)-4-((3S,5R)-3,5-dimethylpiperazine-1-yl)benzamide], the IC50 on FGFR1 and at FGFR2 was < 100 nM throughout.

In the case of `CCN1CCN(c2ccc(C(=O)Nc3n[nH]c4nc(-c5c(Cl)c(OC)cc(OC)c5Cl)ccc34)cc2)CC1` [Example 65, N-(6-(2,6-dichloro-3,5-dimethoxyphenyl)-1H-pyrazolo [3,4-b]pyridin-3-yl)-4-(4-ethylpiperazine-1-yl)benzamide], the IC50 at FGFR1 and on FGFR2 was < 100 nM throughout.

For `COc1cc(OC)c(Cl)c(-c2ccc3c(NC(=O)c4ccc(N5C[C@@H](C)N[C@@H](C)C5)cc4)n[nH]c3n2)c1` [Example 66], the IC50 at FGFR1 and on FGFR2 was < 100 nM throughout.

With `COCCN1CCN(c2ccc(C(=O)Nc3n[nH]c4nc(-c5c(Cl)c(OC)cc(OC)c5Cl)ccc34)cc2)CC1` [Example 67], the IC50 at FGFR1 and at FGFR2 was < 100 nM in each case.

`COc1cc(OC)cc(-c2ccc3c(NC(=O)c4ccc(N5C[C@@H](C)N[C@@H](C)C5)cc4)n[nH]c3n2)c1` [Example 68, N-(6-(3,5-dimethoxyphenyl)-1H-pyrazolo [3,4-b]pyridin-3-yl)-4-(((3R,5S)-3,5-dimethylpiperazine-1-yl))benzamide]: the IC50 on FGFR1 and on FGFR2 was < 100 nM throughout.

On to `COc1cc(OC)c(Cl)c(-c2ccc3c(NC(=O)c4ccc(N5CCOCC5)cc4)n[nH]c3n2)c1Cl` [Example 70, N-(6-(2,6-dichloro-3,5-dimethoxyphenyl)-1H-pyrazolo [3,4-b]pyridin-3-yl)-4-morpholino benzamide], for which the IC50 at FGFR1 and at FGFR2 was < 100 nM each time.

With `COc1cc(OC)c(Cl)c(-c2ccc3c(NC(=O)c4ccc(N5C[C@@H](C)N[C@@H](C)C5)nc4)n[nH]c3n2)c1Cl` [Example 71], the IC50 at FGFR1 and on FGFR2 was < 100 nM in each case.

Turning to `COc1cc(OC)c(Cl)c(-c2ccc3c(NC(=O)c4ccc(N5CCNC(C)(C)C5)cc4)n[nH]c3n2)c1Cl` [Example 72], the IC50 at FGFR1 and at FGFR2 was < 100 nM in each case.

With `COc1cc(OC)c(Cl)c(-c2ccc3c(NC(=O)c4ccc(N5CC6(CNC6)C5)cc4)n[nH]c3n2)c1Cl` [Example 73, N-(6-(2,6-dichloro-3,5-dimethoxyphenyl)-1H-pyrazolo [3,4-b]pyridin-3-yl)-4-(2,6-diazaspiro [3.3]heptane-2-yl)benzamide], the IC50 on FGFR1 and on FGFR2 was < 100 nM in each case.

For the compound `COc1cc(OC)c(Cl)c(-c2ncc3c(NC(=O)c4ccc(N5CCN(C)CC5)cc4)n[nH]c3n2)c1Cl` [Example 83], the half-maximal inhibitory concentration (IC50) at FGFR1 and at FGFR2 was < 100 nM throughout.

As for `COc1cc(OC)c(Cl)c(-c2ccc3c(NC(=O)c4ccc(N5CCN(C)CC5)nc4)n[nH]c3n2)c1Cl` [Example 85, N-(6-(2,6-dichloro-3,5-dimethoxyphenyl)-1H-pyrazolo [3,4-b]pyridin-3-yl)-6-(4-methylpiperazine-1-yl)nicotinamide], the IC50 at FGFR1 and at FGFR2 was < 100 nM each time.

`CCN1CCN(c2ccc(C(=O)Nc3n[nH]c4nc(-c5c(Cl)c(OC)cc(OC)c5Cl)ccc34)cn2)CC1` [Example 86, N-(6-(2,6-dichloro-3,5-dimethoxyphenyl)-1H-pyrazolo [3,4-b]pyridin-3-yl)-6-(4-ethylpiperazine-1-yl)nicotinamide]: the IC50 at FGFR1 and at FGFR2 was < 100 nM each time.

Take `COc1cc(OC)c(Cl)c(-c2ccc3c(NC(=O)c4ccc(N5CCNC(C)(C)C5)nc4)n[nH]c3n2)c1Cl` [Example 87, N-(6-(2,6-dichloro-3,5-dimethoxyphenyl)-1H-pyrazolo [3,4-b]pyridin-3-yl)-6-(3,3-dimethylpiperazine-1-yl)nicotinamide]: the IC50 at FGFR1 and at FGFR2 was < 100 nM each time.

Take `COc1cc(OC)c(Cl)c(-c2ccc3c(NC(=O)c4ccc(N5CCN(C6CC6)CC5)nc4)n[nH]c3n2)c1Cl` [Example 88, 6-(4-cyclopropylpiperazine-1-yl)-N-(6-(2,6-dichloro-3,5-dimethoxyphenyl)-1H-pyrazolo [3,4-b]pyridin-3-yl)nicotinamide]: the IC50 at FGFR1 and on FGFR2 was < 100 nM throughout.

Turning to `COc1cc(OC)c(Cl)c(-c2ccc3c(NC(=O)c4ccc(N5CCN(C6CC6)CC5)cc4)n[nH]c3n2)c1Cl` [Example 89], the 50% inhibitory concentration (IC50) on FGFR1 and at FGFR2 was < 100 nM throughout.

As to `COc1cc(OC)c(Cl)c(-c2ccc3c(NC(=O)c4ccc(N5C[C@@H](C)N(C)[C@@H](C)C5)cc4)n[nH]c3n2)c1Cl` [Example 90], the IC50 at FGFR1 and at FGFR2 was < 100 nM throughout.

In the case of `COc1cc(OC)c(Cl)c(-c2ccc3c(NC(=O)c4ccc(N5CCNC(C)(C)C5)c(F)c4)n[nH]c3n2)c1Cl` [Example 91, N-(6-(2,6-dichloro-3,5-dimethoxyphenyl)-1H-pyrazolo [3,4-b]pyridin-3-yl)-4-(3,3-dimethylpiperazine-1-yl)-3-fluorobenzamide], the IC50 on FGFR1 and on FGFR2 was < 100 nM in each case.

On to `COc1cc(OC)c(Cl)c(-c2ccc3c(NC(=O)c4cnc(N5CCN(C)CC5)nc4)n[nH]c3n2)c1Cl` [Example 92, N-(6-(2,6-dichloro-3,5-dimethoxyphenyl)-1H-pyrazolo [3,4-b]pyridin-3-yl)-2-(4-methylpiperazine-1-yl)pyrimidine-5-formamide], for which the IC50 on FGFR1 and on FGFR2 was < 100 nM throughout.

Take `COc1cc(OC)c(F)c(-c2ccc3c(NC(=O)c4ccc(N5CCCCC5)cc4)n[nH]c3c2)c1F` [Example 93, N-(6-(2,6-difluoro-3,5-dimethoxyphenyl)-1H-indazole-3-yl)-4-(piperidine-1-yl)benzamide]: the IC50 on FGFR1 and at FGFR2 was < 100 nM throughout.

With `COc1cc(OC)c(F)c(-c2ccc3c(NC(=O)c4ccc(CN5CCN(C)CC5)cc4)n[nH]c3c2)c1F` [Example 94, N-(6-(2,6-difluoro-3,5-dimethoxyphenyl)-1H-indazole-3-yl)-4-((4-methylpiperazine-1-yl)methyl)benzamide], the IC50 on FGFR1 and at FGFR2 was < 100 nM throughout.

Regarding `COc1cc(OC)c(F)c(-c2ccc3c(NC(=O)c4ccc(N5CCCN(C)CC5)cc4)n[nH]c3c2)c1F` [Example 95, N-(6-(2,6-difluoro-3,5-dimethoxyphenyl)-1H-indazole-3-yl)-4-(4-methyl-1,4-diazepane-1-yl)benzamide], the IC50 at FGFR1 and at FGFR2 was < 100 nM each time.

Consider `COc1cc(OC)c(F)c(-c2ccc3c(NC(=O)c4cnc(N5CCN(C)CC5)nc4)n[nH]c3c2)c1F` [Example 96, N-(6-(2,6-difluoro-3,5-dimethoxyphenyl)-1H-indazole-3-yl)-2-(4-methylpiperazine-1-yl) pyrimidine-5-formamide], for which the IC50 at FGFR1 and at FGFR2 was < 100 nM throughout.

`COc1cc(C(=O)Nc2n[nH]c3cc(-c4c(F)c(OC)cc(OC)c4F)ccc23)ccc1N1CCNC(C)(C)C1` [Example 97, N-(6-(2,6-difluoro-3,5-dimethoxyphenyl)-1H-indazole-3-yl)-4-(3,3-dimethylpiperazine-1-yl)-3-methoxybenzamide]: the IC50 on FGFR1 and on FGFR2 was < 100 nM each time.

Regarding `COc1cc(OC)c(F)c(-c2ccc3c(NC(=O)c4ccc(N5CCC(N(C)C)C5)cc4)n[nH]c3c2)c1F` (centres unmarked) [Example 98, N-(6-(2,6-difluoro-3,5-dimethoxyphenyl)-1H-indazole-3-yl)-4-(3-(dimethylamino)pyrrolidine-1-yl)benzamide], the IC50 at FGFR1 and on FGFR2 was < 100 nM in each case.

On to `COc1cc(OC)c(Cl)c(-c2ccc3c(NC(=O)c4ccc(N5CC(C)(C)NC(C)(C)C5)cc4)n[nH]c3n2)c1Cl` [Example 99], for which the IC50 on FGFR1 and at FGFR2 was < 100 nM in each case.

Turning to `COc1cc(OC)c(Cl)c(-c2ccc3c(NC(=O)c4ccc(N5CCC(N(C)C)C5)cc4)n[nH]c3n2)c1Cl` (centres unmarked) [Example 100], the IC50 on FGFR1 and on FGFR2 was < 100 nM throughout.

On to `COc1cc(C(=O)Nc2n[nH]c3nc(-c4c(Cl)c(OC)cc(OC)c4Cl)ccc23)ccc1N1CCNC(C)(C)C1` [Example 101, N-(6-(2,6-dichloro-3,5-dimethoxyphenyl)-1H-pyrazolo [3,4-b]pyridin-3-yl)-4-(3,3-dimethylpiperazine-1-yl)-3-methoxybenzamide], for which the IC50 on FGFR1 and at FGFR2 was < 100 nM each time.

The values are drawn from patent publication US10562900B2 (Shanghai Haihe Pharmaceutical Co., Ltd., priority 2014, dated 2020).
